Measurements: PubChem BioAssay AID651790 (The Scripps Research Institute Molecular Screening Center, 2012)
Activity calls are given as the source filed them. No rule for the calls is given here.

Tested on: cells with GAA30 frataxin promoter-luciferase, luminescence
Assay: short-repeat frataxin promoter luciferase activation – cell-based, luminescence, GAA30 repeat, counter-screen for GAA850 frataxin promoter activators, dose response (AID 651790)

SMILES | EC50
COc1ccc(-c2nnc(Nc3nc4ccc(SC)cc4s3)o2)c(OC)c1 | > 59.6 µM (inactive)
Fc1cccc2sc(Nc3nnc(-c4ccccc4Cl)o3)nc12 | 4.95 µM
Clc1ccccc1-c1nnc(Nc2nc3cc4c(cc3s2)OCO4)o1 | 53.1 µM (inactive)
Clc1ccc(-c2nnc(Nc3nc4cc5c(cc4s3)OCO5)o2)cc1 | > 59.6 µM (inactive)
COc1ccccc1CNC(=O)CSc1ncc(C(=O)Nc2ccccc2)c(=O)n1C | > 59.6 µM (inactive)
CSc1ccc2nc(Nc3nnc(-c4ccc5c(c4)OCCO5)o3)sc2c1 | > 59.6 µM (inactive)
COc1ccccc1NC(=O)c1cnc(SCC(=O)Nc2ccc3c(c2)OCO3)n(C)c1=O | > 59.6 µM (inactive)
COc1ccc(-c2nnc(Nc3nc4cc(OC)ccc4s3)o2)c(OC)c1 | > 59.6 µM (inactive)
COc1ccccc1NC(=O)c1cnc(SCC(=O)Nc2cc(C)on2)n(C)c1=O | > 59.6 µM (inactive)
COc1cccc2sc(Nc3nnc(-c4ccccc4)o3)nc12 | > 59.6 µM (inactive)
Cc1ccc(NC(=O)c2cnc(SCC(=O)Nc3cccc(C(F)(F)F)c3)n(C)c2=O)cc1C | 28.7 µM (inactive)
CCc1nnc(NC(=O)CSc2ncc(C(=O)Nc3ccc(C)c(C)c3)c(=O)n2C)s1 | > 59.6 µM (inactive)
COc1ccc(-c2nnc(Nc3nc4ccc(F)cc4s3)o2)c(OC)c1 | > 59.6 µM (inactive)
Cn1c(SCC(=O)NCC2CCCO2)ncc(C(=O)Nc2ccc(F)cc2)c1=O (stereo not drawn) | > 59.6 µM (inactive)
COc1ccccc1NC(=O)c1cnc(SCC(=O)Nc2nc3ccccc3s2)n(C)c1=O | > 59.6 µM (inactive)
Cn1c(SCC(=O)NCC2CCCO2)ncc(C(=O)Nc2ccccc2)c1=O (stereo not drawn) | > 59.6 µM (inactive)
COc1ccccc1NC(=O)c1cnc(SCC(=O)NCc2ccccc2)n(C)c1=O | > 59.6 µM (inactive)
COc1ccccc1-c1nnc(Nc2nc3c(OC)cccc3s2)o1 | > 59.6 µM (inactive)
COc1cccc2sc(Nc3nnc(-c4ccccc4Cl)o3)nc12 | > 59.6 µM (inactive)
CSc1ccc2nc(Nc3nnc(-c4ccccc4Cl)o3)sc2c1 | 27.6 µM (inactive)
COc1ccc(-c2nnc(Nc3nc4ccc(OC)cc4s3)o2)c(OC)c1 | > 59.6 µM (inactive)
COc1ccc(-c2nnc(Nc3nc4c(OC)cccc4s3)o2)c(OC)c1 | > 59.6 µM (inactive)
COc1ccc(-c2nnc(Nc3nc4c(OC)cccc4s3)o2)cc1 | > 59.6 µM (inactive)
Fc1ccc2nc(Nc3nnc(-c4ccccc4Cl)o3)sc2c1 | > 59.6 µM (inactive)
COc1ccccc1NC(=O)c1cnc(SCC(=O)NCCc2ccccc2)n(C)c1=O | > 59.6 µM (inactive)
Fc1ccc(-c2nnc(Nc3nc4c(F)cccc4s3)o2)cc1 | 0.634 µM
COc1ccccc1NC(=O)c1cnc(SCC(=O)NCc2ccc3c(c2)OCO3)n(C)c1=O | > 59.6 µM (inactive)
COc1ccccc1NC(=O)c1cnc(SCC(=O)NCC2CCCO2)n(C)c1=O (stereo not drawn) | > 59.6 µM (inactive)
